Earlier results as cited in patent publication US11014971B2, “Peptibodies, compositions thereof, and methods of treating atrial fibrillation” (University of South Florida, priority 2016, dated 2021).

Key:
[1] = test system: atrial action potential in a normal heart
[2] = test system: paroxysmal AF and atrial flutter in patients
IKACh = biological target: T1, IKACh (Homo sapiens, UniProt P48544+P48549)
T1 sequence (P48549 1-501): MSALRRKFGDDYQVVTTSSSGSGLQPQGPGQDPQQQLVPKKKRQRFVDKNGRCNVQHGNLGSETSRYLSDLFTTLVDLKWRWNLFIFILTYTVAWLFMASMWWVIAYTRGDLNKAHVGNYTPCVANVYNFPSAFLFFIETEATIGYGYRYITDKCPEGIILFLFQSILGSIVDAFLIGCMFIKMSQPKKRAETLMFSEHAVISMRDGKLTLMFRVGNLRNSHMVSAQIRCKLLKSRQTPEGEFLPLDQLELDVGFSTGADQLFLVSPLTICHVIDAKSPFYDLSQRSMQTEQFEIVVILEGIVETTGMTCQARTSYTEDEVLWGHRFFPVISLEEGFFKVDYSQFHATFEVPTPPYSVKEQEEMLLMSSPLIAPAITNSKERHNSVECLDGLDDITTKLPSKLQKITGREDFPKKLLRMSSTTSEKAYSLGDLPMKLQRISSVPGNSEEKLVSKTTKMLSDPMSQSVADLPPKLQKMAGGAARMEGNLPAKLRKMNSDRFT
T1 sequence (P48544 1-419): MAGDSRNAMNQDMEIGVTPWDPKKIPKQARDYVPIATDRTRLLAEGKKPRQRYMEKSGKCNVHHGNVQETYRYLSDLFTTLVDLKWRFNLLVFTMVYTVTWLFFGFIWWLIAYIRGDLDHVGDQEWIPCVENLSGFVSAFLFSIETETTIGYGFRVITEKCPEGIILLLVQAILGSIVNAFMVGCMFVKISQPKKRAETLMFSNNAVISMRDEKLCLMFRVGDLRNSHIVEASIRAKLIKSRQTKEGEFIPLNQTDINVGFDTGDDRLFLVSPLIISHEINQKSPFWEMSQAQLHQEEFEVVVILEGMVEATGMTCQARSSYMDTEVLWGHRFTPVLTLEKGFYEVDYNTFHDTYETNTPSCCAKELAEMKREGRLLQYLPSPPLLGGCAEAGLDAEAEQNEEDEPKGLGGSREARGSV

Molecule | Effect on the action potential duration in normal atria [1] | Reversion of atrial flutter in patients ([2]; atrial flutter) | Concentrations at which IKACh is selectively inhibited (IKACh) | Reversion of paroxysmal AF in patients ([2]; paroxysmal AF)
Tertiapin | minimal effects |  |  | 
Cc1cc(C(=O)N(C)[C@H](CN2CC(O)C2)C(C)C)ccc1F [AZD2927] |  | failed to revert | submicromolar | 
Cc1cc(CO)nc2cc3c(cc12)OC(C)(C)[C@H](O)[C@H]3NCCc1ccccc1 [NTC-801] |  |  | submicromolar | failed to revert
